Measurements published in ChEMBL document CHEMBL5729003, “Dihydropyrimidine compounds and uses thereof in medicine” (2022).

Experiment: Old liquid medium can be removed and replaced with new medium (200 μL) on day 0.Formulating the compound and treating the cells in the experiment of anti virus: the compound was dissolved in DMSO to a concentration of 30 mM, and then the compound solution was diluted with DMSO to a concentration of […], and then eight dilutions at 4 fold were performed, the highest concentration is 800 μM. The serial diluted compound was added to the above plate at 1 μL per well, the highest final concentration in the experiment is 4 μM (200 fold dilution). TDF (tenofovir dipiroxil fumarate, Selleck, Cat S1400) has a highest concentration of 4 μM as a positive control. […] at a final concentration of 0.5%, TDF was added in to the positive control well at a final concentration of 1 μM.Detection of Viral Genomic DNA by qPCRPrimer: HBV-For-202, […]; HBV-Rev-315, […]. Copies of virus can be calculated using a standard curve plotted by using plasmid containing HBV genome and using SYBR Premix Ex Taq II Takara DRR081S kit and 1 μL cell culture supernatant as a template. EC50 values of the compound on viral replication were calculated by a four parametric nonlinear regression model using Graphpad Prism 5 software to manage concentration—viral copy number.
Details: HepG2.2.15

COC[C@@H]1[C@H]2CN(c3ccc(C(C)(C)OC=O)cc3)C(=O)N2CCN1CC1=C(C(=O)OC)[C@H](c2ccc(F)cc2Cl)N=C(c2nccs2)N1
EC50: 5 nM
